Data as given in PMC10304880, “Novel Tryptanthrin Derivatives with Selectivity as c–Jun N–Terminal Kinase (JNK) 3 Inhibitors” (Molecules, 2023).

How the values were obtained:
[1] = molecular target: T1, JNK3 (Homo sapiens, UniProt P53779); assay: KINOMEscan JNK3 binding (Kd); details: for Kd: KINOMEscan, 12-point series, max 33 μM, duplicate; for Selectivity Index JNK1/JNK3 / Selectivity Index JNK2/JNK3: ratio of Kd values
T1 construct: purchased Eurofins Pharma Discovery (KINOMEscan service)
Protocol: (§1) All compounds were evaluated for their ability to bind to JNK1-3 using the KINOMEscan platform.
(§2) Compounds were submitted for dissociation constant (Kd) determination using KINOMEscan (Eurofins Pharma Discovery, San Diego, CA, USA), as described previously. […] Primary screening at fixed concentrations of compounds was performed in duplicate. To determine dissociation constant Kd, a 12-point half-log dilution series (a maximum concentration of 33 μM) was used.

[2] = tested on: IL-6 production in MonoMac-6 cells; assay: LPS-induced IL-6 production in MonoMac-6 cells (ELISA); format: cell-based, human; details: 250 ng/mL LPS, 24 h
Protocol: All cells were cultured at 37 °C in a humidified atmosphere containing 5% CO2. Human THP-1Blue monocytic cells obtained from InvivoGen (San Diego, CA, USA) were cultured in RPMI 1640 medium (Mediatech Inc., Herndon, VA, USA) supplemented with 10% (v/v) fetal bovine serum (FBS), 4.5 g/L glucose, 100 μg/mL streptomycin, 100 U/mL penicillin, 100 μg/mL phleomycin (Zeocin), and 10 μg/mL blasticidin S. Human monocyte-macrophage MonoMac-6 cells (Deutsche Sammlung von Mikroorganismen und Zellkulturen GmbH, Braunschweig, Germany) were grown in RPMI 1640 medium supplemented with 10% (v/v) FBS, 10 μg/mL bovine insulin, 100 μg/mL streptomycin, and 100 U/mL penicillin.
(§3) Panel (A) THP-1Blue cells were pretreated with the indicated compounds or DMSO for 30 min, followed by addition of 250 ng/mL LPS or buffer for 24 h. […] Panel (B) MonoMac-6 cells were pretreated with the indicated compounds or DMSO for 30 min, followed by addition of 250 ng/mL LPS or buffer for 24 h. Production of IL-6 in the supernatants was evaluated with ELISA. The data in each panel are presented as the mean ± S.D. of triplicate samples from one experiment that is representative of three independent experiments.

[3] = tested on: NF-κB/AP-1 transcriptional activity in THP-1Blue cells; assay: LPS-induced NF-κB/AP-1 alkaline phosphatase reporter assay in THP-1Blue cells; format: cell-based; details: Homo sapiens, 30 min pretreatment, 250 ng/mL LPS, 24 h; read-out: AP Production in THP–1Blue IC50
Protocol: Activation of AP-1/NF-κB was measured using an alkaline phosphatase reporter gene assay in THP1-Blue cells. Human monocytic THP-1Blue cells were stably transfected with a secreted embryonic alkaline phosphatase gene that was under the control of a promoter inducible by AP-1/NF-κB.
as §3, with “Figure 2 Effect of compounds 4d and 4e on NF-κB/AP-1 activity and IL-6 production. Panel (A)” for “Panel (A)”

[4] = CellTiter-Glo cytotoxicity in MonoMac-6 cells; format: cell-based; details: human, 24 h incubation
Protocol: (§4) Prior to evaluation of the compounds in cell-based assays, we measured their cytotoxicity in human monocytic THP-1Blue and MonoMac-6 cells during a 24 h incubation. […] Thus, these compounds were all excluded from subsequent testing in these cell lines.
(§5) Cytotoxicity was analyzed with a CellTiter-Glo Luminescent Cell Viability Assay Kit from Promega (Madison, WI, USA), according to the manufacturer’s protocol. Cells were treated with the compound under investigation and cultivated for 24 h. After treatment, the cells were allowed to equilibrate to room temperature for 30 min, substrate was added, and the luminescence measured using a Fluoroscan Ascent FL (Thermo Fisher Scientific, Waltham, MA, USA). The cell IC50 values were calculated by plotting the percentage inhibition against the logarithm of inhibitor concentration (at least five points).

[5] = molecular target: T2, JNK1 (Homo sapiens, UniProt P45983); assay: KINOMEscan JNK1 binding (Kd); details: 12-point series, max 33 μM, duplicate
T2 construct: purchased Eurofins Pharma Discovery (KINOMEscan service)
Protocol: as §1, §2

[6] = CellTiter-Glo cytotoxicity in THP-1Blue cells; format: cell-based; details: human, 24 h incubation
Protocol: as §4, §5

[7] = molecular target: T3, JNK2 (Homo sapiens, UniProt P45984); assay: KINOMEscan JNK2 binding (Kd); details: 12-point series, max 33 μM, duplicate
T3 construct: purchased Eurofins Pharma Discovery (KINOMEscan service)
Protocol: as §1, §2

[8] = tested on: c-Jun phosphorylation in MonoMac-6 cells; assay: LPS-induced c-Jun (Ser63) phosphorylation in MonoMac-6 cells (sandwich ELISA); format: cell-based, human; details: 30 min pretreatment, LPS 500 ng/mL
Protocol: After 30 min pretreatment with the compounds, the cells were stimulated with LPS (500 ng/mL), and the level of phospho-c-Jun (S63) was determined by a sandwich ELISA.
MonoMac-6 cell lysates were prepared using Cell Lysis Buffer (Cell Signaling Technology, Danvers, MA, USA). The phospho-c-Jun content was measured with ELISA using the PathScan Phospho-c-Jun (Ser63) Sandwich ELISA Kit II (Cell Signaling Technology, USA), and the data are shown as the ratio of phospho-c-Jun vs. total c-Jun, which was measured using the FastScanTM Total c-Jun ELISA kit (Cell Signaling Technology).
Figure 3 Effect of the compounds 4d, 4e, 4h, and IQ-1S on LPS-induced c-Jun phosphorylation. Human MonoMac-6 monocytic cells were pretreated with the indicated concentrations of compounds or 0.5% DMSO for 30 min, followed by treatment with LPS (500 ng/mL) or control buffer for another 30 min. The cells were lysed, and the lysates were analyzed with ELISA for phospho-c-Jun (Ser63) and total c-Jun. The data are represented as the ratio of phospho-c-Jun to total c-Jun. The data are presented as the mean ± S.D. of triplicate samples from one experiment that is representative of three independent experiments. * Significant differences (p < 0.05) with LPS control.

[9] = Homo sapiens, MONO-MAC-6, 30 min pretreatment

T2 sequence (P45983 whole entry): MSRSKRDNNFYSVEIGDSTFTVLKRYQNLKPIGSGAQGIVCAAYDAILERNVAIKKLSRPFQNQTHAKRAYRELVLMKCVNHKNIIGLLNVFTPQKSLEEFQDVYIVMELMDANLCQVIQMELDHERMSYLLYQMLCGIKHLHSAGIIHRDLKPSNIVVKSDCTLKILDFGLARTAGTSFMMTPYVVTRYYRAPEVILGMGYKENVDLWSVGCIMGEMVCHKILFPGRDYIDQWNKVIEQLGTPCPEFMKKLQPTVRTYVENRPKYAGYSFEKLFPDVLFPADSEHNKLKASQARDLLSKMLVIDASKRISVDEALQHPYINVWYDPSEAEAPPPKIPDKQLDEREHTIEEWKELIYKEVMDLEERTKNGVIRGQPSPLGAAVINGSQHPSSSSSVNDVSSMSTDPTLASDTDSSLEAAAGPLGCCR
T1 sequence (P53779 whole entry): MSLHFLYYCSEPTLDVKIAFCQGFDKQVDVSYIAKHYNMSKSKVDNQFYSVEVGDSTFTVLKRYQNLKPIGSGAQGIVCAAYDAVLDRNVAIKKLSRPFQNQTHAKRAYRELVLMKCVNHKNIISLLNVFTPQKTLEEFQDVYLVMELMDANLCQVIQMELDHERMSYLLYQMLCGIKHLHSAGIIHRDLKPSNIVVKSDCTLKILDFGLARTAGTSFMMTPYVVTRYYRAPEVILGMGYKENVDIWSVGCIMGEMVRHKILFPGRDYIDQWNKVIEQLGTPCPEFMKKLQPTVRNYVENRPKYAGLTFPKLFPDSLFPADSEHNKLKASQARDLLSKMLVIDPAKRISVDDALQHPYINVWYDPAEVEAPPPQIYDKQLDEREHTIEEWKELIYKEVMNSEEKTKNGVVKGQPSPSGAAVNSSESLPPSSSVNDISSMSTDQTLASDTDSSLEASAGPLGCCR
T3 sequence (P45984 whole entry): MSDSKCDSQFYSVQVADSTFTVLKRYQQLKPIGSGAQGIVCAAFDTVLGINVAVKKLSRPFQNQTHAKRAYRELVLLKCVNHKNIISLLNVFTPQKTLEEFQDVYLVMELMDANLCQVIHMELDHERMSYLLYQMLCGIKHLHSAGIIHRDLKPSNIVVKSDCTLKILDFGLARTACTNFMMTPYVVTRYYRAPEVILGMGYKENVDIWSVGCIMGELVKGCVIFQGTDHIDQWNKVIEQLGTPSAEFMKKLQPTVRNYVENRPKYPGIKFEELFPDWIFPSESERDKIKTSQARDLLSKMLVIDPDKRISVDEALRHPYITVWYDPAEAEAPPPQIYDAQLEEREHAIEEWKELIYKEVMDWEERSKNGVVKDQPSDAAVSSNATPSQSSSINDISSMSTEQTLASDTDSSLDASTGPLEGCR

Structure (SMILES) | Kd [1] [nM] | Selectivity Index JNK1/JNK3 [1] | Selectivity Index JNK2/JNK3 [1] | IC50 [2, 9] [µM] | IC50 [3] [µM] | melting point | IC50 at 24 h [4] [µM] | Kd [5] [µM] | IC50 at 24 h [6] [µM] | Kd [7] [µM] | IC50 ([2]; 30 min pretreatment) [µM] | selectivity index (JNK3 versus JNK1 and JNK2) [1] | LPS-induced c-Jun phosphorylation (phospho-c-Jun S63 / total c-Jun) [8]
Cc1cccc2c1C(=NO)c1nc3ccccc3c(=O)n1-2 [Compound 4g, 7-Methylindolo[2,1-b]quinazolin-6,12-dione Oxime] | 400 ± 40 | 15.5 | 35 | 25.2 ± 5.3 | > 50 | > 225 °C (dec.) | > 50 | 6.2 ± 1.8 | > 50 | 14 ± 0.7 |  |  | 
O=c1c2ccc(F)cc2nc2n1-c1ccccc1C2=NO [Compound 4l, 3-Fluoroindolo[2,1-b]quinazolin-6,12-dione Oxime] | 430 ± 40 | 2.6 | 1.7 | < 1 | 5 ± 0.1 | > 225 °C (dec.) | > 50 | 1.1 ± 0.1 | > 50 | 0.72 ± 0.22 | 0.61 ± 0.04 |  | 
COc1ccc2c(c1)C(=NO)c1nc3ccc(OC)cc3c(=O)n1-2 [Compound 4q, 2,8-Dimethoxylindolo[2,1-b]quinazolin-6,12-dione Oxime] | > 30000 |  |  | 1.3 ± 0.4 | 4.6 ± 0.3 | 262 to 263 °C | > 50 | > 30 | > 50 | > 30 |  |  | 
COC(=O)ON=C1c2ccccc2-n2c1nc1ccccc1c2=O [Compound 5c, 6-(((Methoxycarbonyl)oxy)imino)indolo[2,1-b]quinazolin-12(6H)-one] | 700 ± 120 | 2.4 | 4.0 | 12.4 ± 1.3 | 8.1 ± 2.2 | 197 °C | > 50 | 1.7 ± 0.4 | > 50 | 2.8 ± 0.5 |  |  | 
O=c1c2ccccc2nc2n1-c1ccc(Br)cc1C2=NO [Compound 4b, 8-Bromoindolo[2,1-b]quinazolin-6,12-dione Oxime] | 410 ± 70 | 7.8 | 20.7 | 15.5 ± 3.8 | 2.1 ± 0.7 | > 225 °C (dec.) | > 50 | 3.2 ± 0.21 | > 50 | 8.5 ± 3.2 |  | > 7 | 
CCOC(=O)C(ON=C1c2ccccc2-n2c1nc1ccccc1c2=O)C(=O)OCC [Compound 5b, Diethyl 2-(((12-Oxoindolo[2,1-b]quinazolin-6(12H)-ylidene)amino)oxy)malonate] | > 30000 |  |  | > 50 | > 50 | 211 °C | > 50 | 16.5 ± 0.7 | > 50 | > 30 |  |  | 
C#CCOC(=O)ON=C1c2ccccc2-n2c1nc1ccccc1c2=O [Compound 5d, 6-((((Prop-2-yn-1-yloxy)carbonyl)oxy)imino)indolo[2,1-b]quinazolin-12(6H)-one] | 320 ± 60 | 3.0 | 5.0 | 7 ± 0.9 | 4.4 ± 1.6 | 210 °C | > 50 | 0.95 ± 0.03 | > 50 | 1.6 ± 0.1 |  |  | 
Cc1ccc2c(c1)C(=NO)c1nc3ccc(C)cc3c(=O)n1-2 [Compound 4o, 2,8-Dimethylindolo[2,1-b]quinazolin-6,12-dione Oxime] | 870 ± 160 | 4.3 | 7.9 | < 1 | 8.1 ± 0.1 | > 300 °C (dec.) | > 50 | 3.7 ± 0.5 | > 50 | 6.9 ± 0.2 | 0.8 ± 0.1 |  | 
O=c1c2c(Br)cccc2nc2n1-c1cccc(Br)c1C2=NO [Compound 4u, 1,7-Dibromoindolo[2,1-b]quinazolin-6,12-dione Oxime] | > 30000 |  |  | > 50 | > 50 | > 300 °C (dec.) | > 50 | > 30 | > 50 | > 30 |  |  | 
Cc1cccc2c1C(=NO)c1nc3cccc(C)c3c(=O)n1-2 [Compound 4p, 1,7-Dimethylindolo[2,1-b]quinazolin-6,12-dione Oxime] | > 30000 |  |  | > 50 | > 50 | 190 to 191 °C | > 50 | > 30 | > 50 | > 30 |  |  | 
[Na+].[O-]/N=C1/c2ccccc2-c2nc3ccccc3nc21 [IQ-1S, reference compound] |  |  |  |  |  |  |  |  |  |  |  |  | dose-dependently inhibited
